Here are results for one molecule from patent US5554357A, “Magnetic resonance imaging agents containing hydrazide moieties” (Mallinckrodt Medical, Inc., priority 1994, dated 1996).

Series [1] in a line: T1 relaxivity by spin-echo NMR. Type of series: physicochemical. The conditions noted are these: 90 MHz, H2O/D2O (4:1), six concentrations from 20 mM down; least-square fit of 1/T1 versus concentration, correlation coefficient 0.9994. Here is the method:
T1 relaxation times were measured using spin-echo sequence on the JEOL FX90Q (90 MHz) FT-NMR spectrometer/ Twenty millimolar solution of the complex in Example 1 was prepared in H2 O/D2 O (4:1) mixture and was serially diluted to lower concentrations ([…]) with H2 O/D2 O (4:1) mixture. T1 measurements were made at each of these 6 concentrations. The relaxivity (R1) was determined by applying least-square fit to the plot of 1/T1 versus concentration. The relaxivity of the complex in Example 1 was 4.85+0.06 mM^-1 sec^-1. The correlation coefficient for the least squares analysis was 0.9994.

A further series concerns ICR mice. The series can be described thus: acute intravenous toxicity. The conditions noted are these: single intravenous injection via lateral tail vein, males and females, 7 days observation, 95% Confidence Limits 6.8-19.6 mmol/kg. Type of series: in vivo, mouse (ICR). Here is the method:
The acute intravenous toxicity of the compound of Example 1 was determined as follows: ICR mice, at 1 to 4 per dose level, received single intravenous injections of the test substance via a lateral tail vein at the rate of approximately 1 ml/minute. The test substances were at concentrations chosen to result in dose volumes of 5 to 75 ml/kg body weight. Dosing began at a volume of 10 ml/kg. Dose adjustments up or down were made to closely bracket the estimated LD50 with 4 animals per group (2 males and 2 females). Observations of the mice were recorded at times 0, 0.5, 1, 2, 4 and 24 hours and once daily thereafter for up to 7 days post injection. On the 7th day post injection, the mice were euthanized, weighed and necropsied. Abnormal tissues were noted. At this time a decision was made as to whether any histopathology was to be performed and whether or not the tissues should be retained. Necropsies were also performed on mice expiring after 24 hours post-injection, except for dead mice found on the weekends. The LD50 values, along with 95% CI were calculated using a modified Behrens-Reed-Meunch method.

As for `CN(C)NC(=O)CN(CCN(CCN(CC(=O)[O-])CC(=O)NN(C)C)CC(=O)[O-])CC(=O)[O-].O.[Gd+3]` [Example 1], in series [1], the “relaxivity (R1)” value came out at 4.85 ± 0.06 mM⁻¹ s⁻¹. Besides, the LD50 in the series with ICR mice is reported as 11.5 mmol/kg.
